In paper PMC5187391, “Structural mechanism for the arginine sensing and regulation of CASTOR1 in the mTORC1 signaling pathway” (Cell Discovery, 2016):

T1: CASTOR1 (Homo sapiens, UniProt Q8WTX7)
T1 construct: full-length human CASTOR1, N-terminal 6×His-tag (homodimer)
T1 sequence (Q8WTX7 1-329): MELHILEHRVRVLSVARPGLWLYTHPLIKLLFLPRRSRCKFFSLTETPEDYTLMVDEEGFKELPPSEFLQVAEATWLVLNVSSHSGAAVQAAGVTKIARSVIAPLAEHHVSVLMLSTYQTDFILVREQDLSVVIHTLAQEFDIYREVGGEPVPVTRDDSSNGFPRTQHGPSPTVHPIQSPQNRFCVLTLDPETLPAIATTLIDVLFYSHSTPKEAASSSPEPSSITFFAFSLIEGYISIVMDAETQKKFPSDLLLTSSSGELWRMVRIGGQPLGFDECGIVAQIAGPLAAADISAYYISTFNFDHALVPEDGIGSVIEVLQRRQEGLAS

T2: CASTOR1 (Homo sapiens, UniProt Q8WTX7, S111A)
T2 construct: full-length human CASTOR1, N-terminal 6×His-tag
T2 sequence (Q8WTX7 1-329 S111A): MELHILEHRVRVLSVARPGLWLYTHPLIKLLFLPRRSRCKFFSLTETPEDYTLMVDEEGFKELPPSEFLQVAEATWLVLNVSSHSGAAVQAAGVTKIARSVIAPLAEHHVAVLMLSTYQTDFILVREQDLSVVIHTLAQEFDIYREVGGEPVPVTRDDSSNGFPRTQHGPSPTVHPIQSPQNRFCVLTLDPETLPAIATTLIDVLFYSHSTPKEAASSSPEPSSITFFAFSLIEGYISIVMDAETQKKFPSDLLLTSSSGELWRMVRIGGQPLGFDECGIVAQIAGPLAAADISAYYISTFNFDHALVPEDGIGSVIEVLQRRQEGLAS

T3: Full-length human Mios with an N-terminal GST tag (human, UniProt Q9NXC5 1-875)
T3 construct: Mios, human, full length, in pGEX4T-1; the methods describe only GST-Mios for the Ni2+-NTA pull-down; also called GST-Mios; purified Mios protein; not shown: GST, N-terminal, kept
T3 sequence (looked up): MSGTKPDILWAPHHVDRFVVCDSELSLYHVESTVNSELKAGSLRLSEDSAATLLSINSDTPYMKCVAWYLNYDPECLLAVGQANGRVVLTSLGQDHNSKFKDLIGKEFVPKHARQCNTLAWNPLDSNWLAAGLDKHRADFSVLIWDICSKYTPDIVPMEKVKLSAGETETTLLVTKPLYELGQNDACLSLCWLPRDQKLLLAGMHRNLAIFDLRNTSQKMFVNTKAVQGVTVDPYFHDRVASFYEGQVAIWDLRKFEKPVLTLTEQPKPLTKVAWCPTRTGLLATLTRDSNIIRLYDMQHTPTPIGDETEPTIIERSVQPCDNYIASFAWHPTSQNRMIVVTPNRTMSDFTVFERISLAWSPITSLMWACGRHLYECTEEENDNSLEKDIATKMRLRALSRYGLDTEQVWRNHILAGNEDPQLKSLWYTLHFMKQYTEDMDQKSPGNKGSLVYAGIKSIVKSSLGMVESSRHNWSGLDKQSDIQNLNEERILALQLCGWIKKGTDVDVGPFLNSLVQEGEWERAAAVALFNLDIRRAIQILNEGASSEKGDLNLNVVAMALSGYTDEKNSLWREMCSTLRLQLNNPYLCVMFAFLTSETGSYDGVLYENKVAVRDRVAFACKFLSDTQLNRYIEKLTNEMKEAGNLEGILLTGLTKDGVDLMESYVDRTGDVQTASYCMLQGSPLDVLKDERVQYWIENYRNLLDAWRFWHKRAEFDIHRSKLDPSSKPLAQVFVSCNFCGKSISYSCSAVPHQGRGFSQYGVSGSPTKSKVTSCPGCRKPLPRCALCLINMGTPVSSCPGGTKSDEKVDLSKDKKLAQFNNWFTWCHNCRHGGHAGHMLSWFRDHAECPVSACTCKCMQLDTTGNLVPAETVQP


Columns and labels:
CASTOR1 [1] = molecular target: T1, CASTOR1; experiment: ITC; format: binding
CASTOR1 [2] = molecular target: T2, CASTOR1; experiment: ITC; format: binding
[3] = molecular target: the molecule itself; experiment: SEC-MALS; 25 °C; about 400 μg protein injected per run; 15 mM Tris-HCl, pH 8.0, 150 mM NaCl, 2 mM DTT; WTC-015S5 column
[4] = molecular target: T3, Full-length human Mios with an …; experiment: pull-down; Ni2+-NTA column pull-down: His-CASTOR1 pre-immobilised on the Ni2+-NTA column, GST-Mios (or another purified GATOR2 subunit) added at 4 °C; wash 25 mM Tris, pH 8.0, 300 mM NaCl, 20 mM imidazole; elution with 500 mM imidazole; SDS-PAGE and Coomassie Blue staining; settings: both partners purified

Row | Molecule | Kd (CASTOR1 [1]) | Kd (CASTOR1 [2]) | stoichiometry N [3] | binding result [4]
1 | N=C(N)NCCC[C@H](N)C(=O)O [arginine] | 2230 nM | 9.68 µM |  | 
2 | Full-length human CASTOR1, wild type, N-terminal 6xHis-tag (natural protein, UniProt Q8WTX7 1-329, looked up, CASTOR1, human, full length (residues 1-329 by the domain limits printed in the results); cDNA chemically synthesized, in pET28a; Dimer in the crystal and by SEC-MALS; also called WT CASTOR1; His-CASTOR1; source: E. coli BL21(DE3), purified (Ni2+-NTA, Superdex 200 gel filtration); not shown: His6, N-terminal, kept) MELHILEHRVRVLSVARPGLWLYTHPLIKLLFLPRRSRCKFFSLTETPEDYTLMVDEEGFKELPPSEFLQVAEATWLVLNVSSHSGAAVQAAGVTKIARSVIAPLAEHHVSVLMLSTYQTDFILVREQDLSVVIHTLAQEFDIYREVGGEPVPVTRDDSSNGFPRTQHGPSPTVHPIQSPQNRFCVLTLDPETLPAIATTLIDVLFYSHSTPKEAASSSPEPSSITFFAFSLIEGYISIVMDAETQKKFPSDLLLTSSSGELWRMVRIGGQPLGFDECGIVAQIAGPLAAADISAYYISTFNFDHALVPEDGIGSVIEVLQRRQEGLAS |  |  | 2 | binds
